Measured values published in patent US20220401514A1, “ANTIMICROBIAL, BACTERIOPHAGE-DERIVED POLYPEPTIDES AND THEIR USE AGAINST GRAM-NEGATIVE AND ACID-FAST BACTERIA” (CONTRAFECT CORPORATION, priority 2019, published 2022).
Read-outs that look alike come from different tables or passages of the source.

What was measured:
M. scrofulaceum = assay: 45 hr MIC against M. scrofulaceum (NTM); type: cell-based, Mycobacterium scrofulaceum; conditions: M. scrofulaceum Prissick and Masson ATCC 19981
Klebsiella pneumoniae [1] = type: cell-based
Method: (§1) Determination of Minimal Inhibitory Concentrations (MIC).
(§2) Additional MIC testing was performed for several peptides against the ESKAPE pathogens Escherichia coli, Enterobacter cloacae, Klebsiella pneumoniae, and Acinetobacter baumannii, in CAA supplemented with human serum (Table D).

[2] = system: P. aeruginosa strain CFS-1292; assay: MIC in presence and absence of Survanta pulmonary surfactant; type: cell-based, Pseudomonas aeruginosa
Klebsiella pneumoniae [3] = assay: microbe, parasite or virus in culture; type: cell-based
[4] = system: carbapenem-resistant bacterial strains; assay: organism not typed; type: cell-based
Text: as §1

[5] = system: P. aeruginosa strain CFS-1292; assay: MIC in presence of divalent cations (calcium chloride, magnesium sulfate); type: cell-based, Pseudomonas aeruginosa
Method: Next, Chp peptides were evaluated in the presence of different divalent cations. […]; (2) in the presence of 2 mM calcium chloride alone; (3) in the presence of 1 mM magnesium sulfate alone; and (4) in the presence of both 2 mM calcium chloride and 1 mM magnesium sulfate. […]

[6] = system: Pseudomonas aeruginosa, Escherichia coli, Enterobacter cloacae, Klebsiella pneumoniae, and Acinetobacter baumannii; assay: MIC against a range of Gram-negative organisms (statements covering several species); type: cell-based; conditions: Tables 40-44 isolates
Method: as §1, §2

M. fortuitum = assay: 45 hr MIC against M. fortuitum (NTM); type: cell-based, Mycobacterium fortuitum; conditions: M. fortuitum subsp. Fortuitum da Costa Cruz. ATCC 6841
M. smegmatis = assay: 45 hr MIC against M. smegmatis (NTM), Mueller Hinton broth; type: cell-based, Mycobacterium smegmatis
[7] = system: Acinetobacter baumannii strain 30; assay: Checkerboard assay (FICI) with antibiotics, A. baumannii; type: cell-based; conditions: checkerboard
Method: (§3) Checkerboard assays. […] Checkerboards were constructed by first preparing columns of a 96-well polypropylene microtiter plate, in which each well had the same amount of antibiotic diluted 2-fold along the horizontal axis. […] Summation fractional inhibitory concentration index (FICIs) were calculated for each drug and the minimum FICI was used to determine synergy. FICIs were calculated as follows: FICI=FIC A+FIC B, where FIC A is the MIC of each antibiotic in the combination/MIC of the each antibiotic alone, and FIC B is the MIC of each Chp peptide in the combination/MIC of each Chp peptide alone. The combination is considered synergistic when the FICI is ≤0.5, strongly additive when the FICI is >0.5 to <1, additive with the FICI is 1-<2, and antagonistic when the FICI is ≥2.
The results are shown below in Tables 22-27.

[8] = system: P. aeruginosa strain CFS-1292; assay: Checkerboard assay (FICI) with antibiotics, P. aeruginosa; type: cell-based, Pseudomonas aeruginosa; conditions: P. aeruginosa CFS-1292
Method: Any known method to assess MIC may be used.
Checkerboards are constructed by first preparing columns of e.g., a 96-well polypropylene microtiter plate, wherein each well has the same amount of antibiotic diluted 2-fold along the horizontal axis. […] Bacteria are added to the drug combinations at concentrations of 1×10^5 […] in CAA, for example, with or without human serum or pulmonary surfactant. […] Summation fractional inhibitory concentrations (ΣFICs) are calculated for each drug and the minimum ΣFIC value (ΣFICmin) is used to determine the effect of the Chp peptide/antibiotic combination.
as §3
In the checkerboard assay, fractional inhibitory concentration index (FICI) values are calculated.

P. aeruginosa (CFS 1292) = assay: microbe, parasite or virus in culture; type: cell-based, Pseudomonas aeruginosa; conditions: Pseudomonas aeruginosa
[9] = K. pneumoniae isolates (n per peptide in table)

MARRRYRLPRRRSRRLFSRTALRMHPRNRLRRIMRGGIRF [Chp6]
0.25 µg/mL: MIC ([4]; carbapenem-resistant isolate WLC-452)
1 µg/mL: MIC100 (Klebsiella pneumoniae [1]; [9]) | MIC (Klebsiella pneumoniae [3]; Klebsiella sp. (HM-44; colon, Crohn's disease), RSC 1139, CAA without human serum) | MIC ([4]; carbapenem-resistant isolate PA20) | MIC ([4]; carbapenem-resistant isolate PA21) | MIC ([4]; carbapenem-resistant isolate PA22) | MIC ([4]; carbapenem-resistant isolate PA23) | MIC ([4]; carbapenem-resistant isolate PA24) | MIC ([5]; CAA media + 1 mM MgSO4) | MIC ([5]; CAA media + + 1 mM MgSO4) | MIC ([5]; CAA media alone)
0.125 to 1 µg/mL: MIC Range (Klebsiella pneumoniae [1]; [9])
good activity: activity (good = MIC100 of ≤4) against all of P. aeruginosa, K. pneumoniae, A. baumannii, E. cloacae, and E. coli [6]
0.125 µg/mL: MIC (Klebsiella pneumoniae [1]; Klebsiella pneumoniae HM-44, CAA supplemented with human serum)
0.5 µg/mL: MIC50 (Klebsiella pneumoniae [1]; [9]) | MIC ([2]; CAA media + 0.19 mg/mL Survanta) | MIC ([2]; CAA media + […] Survanta) | MIC ([2]; CAA media alone) | MIC ([4]; carbapenem-resistant isolate PA19) | MIC ([5]; CAA media + 2 mM CaCl2)
4 µg/mL: MIC (Klebsiella pneumoniae [3]; Klebsiella pneumoniae (ATCC 10031, MIC control strain), RSC 814, CAA without human serum) | MIC (Klebsiella pneumoniae [3]; Klebsiella pneumoniae (g2-3 HM35K), RSC 1138, CAA without human serum) | MIC (Klebsiella pneumoniae [3]; Klebsiella spp. (HM-223; gut of Crohn's disease patient), RSC 1131, CAA without human serum) | 45 hr MIC (M. fortuitum) | 45 hr MIC (M. smegmatis; M. smegmatis MC^2 155, Run #1) | 45 hr MIC (M. smegmatis; M. smegmatis MC^2 155, Run #2)
2 µg/mL: 45 hr MIC (M. scrofulaceum)

NC[C@H]1O[C@H](O[C@H]2[C@H](O)[C@@H](O[C@H]3O[C@H](CO)[C@@H](O)[C@H](N)[C@H]3O)[C@H](N)C[C@@H]2N)[C@H](N)C[C@@H]1O [tobramycin, reference compound]
0.25 µg/mL: MIC (M. scrofulaceum; Mycobacterium scrofulaceum, ATCC19981, 45 h, read-out: 45 hr MIC)
0.5: Antibiotic FIC ([7]; in combination with Chp4-M1)
0.5 µg/mL: MIC (P. aeruginosa (CFS 1292); read-out: MIC Center) | MIC (P. aeruginosa (CFS 1292); read-out: MIC Periphery)
4 µg/mL: MIC (M. fortuitum; Mycolicibacterium fortuitum, ATCC6841, 45 h, read-out: 45 hr MIC)
0.25: Antibiotic FIC ([7]; in combination with Chp2-M1) | Antibiotic FIC ([7]; in combination with Chp6-M1) | Antibiotic FIC ([7]; in combination with Chp10-M1) | Antibiotic FIC ([7]; in combination with Unp2-M1) | Antibiotic FIC ([8]; combined with Chp2-M1) | Antibiotic FIC ([8]; combined with Chp2) | Antibiotic FIC ([8]; combined with Chp4-M1) | Antibiotic FIC ([8]; combined with Chp6-M1) | Antibiotic FIC ([8]; combined with Chp10-M1) | Antibiotic FIC ([8]; combined with Unp2-M1)
0.125 µg/mL: MIC (M. smegmatis; Mycolicibacterium smegmatis, MC^2155, 45 h, read-out: 45 hr MIC, M. smegmatis MC^2 155, Run #2)
< 0.5 µg/mL: MIC (Klebsiella pneumoniae [3]; Klebsiella pneumoniae, ATCC700603, K. pneumoniae (ATCC 700603), control agents of Table 8, read-out: MIC (in brackets beside MBEC)) | MIC (Klebsiella pneumoniae [3]; Klebsiella pneumoniae, read-out: MIC (in brackets beside MBEC))
0.01562 µg/mL: Antibiotic MIC ([7]; in combination with Chp2) | Antibiotic MIC ([7]; in combination with Chp2-M1) | Antibiotic MIC ([7]; in combination with Chp6-M1) | Antibiotic MIC ([7]; in combination with Chp10-M1) | Antibiotic MIC ([7]; in combination with Unp2-M1)
0.125: Antibiotic FIC ([7]; in combination with Chp2)
